Test results as given in patent publication US9079913B2, “Spiro-oxindole MDM2 antagonists” (The Regents of the University of Michigan, priority 2009, dated 2015).
Where two headings read alike, the source gives them in different places.

Key:
[1] = system: cancer cell lines with wild-type p53 / mutated or deleted p53 (ATCC); test: Cell growth assay (WST-8), other cancer cell lines; assay type: cell-based; conditions: Homo sapiens
[2] = target: recombinant human His-tagged MDM2 protein (residues 1-118) (Homo sapiens (Human), UniProt Q00987); test: Fluorescence-polarization MDM2 binding assay; conditions: Table 19A; FP binding assay; read-out: MDM2 IC50;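 note: fluorescence polarization read after three hours of incubation in potassium phosphate buffer containing bovine gamma globulin and Triton X-100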
Sequence of recombinant human His-tagged MDM2 protein (residues 1-118) (Q00987 1-118): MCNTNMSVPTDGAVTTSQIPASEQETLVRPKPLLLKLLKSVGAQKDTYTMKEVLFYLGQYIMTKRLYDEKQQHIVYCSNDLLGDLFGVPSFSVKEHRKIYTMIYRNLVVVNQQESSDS

[3] = In vitro microsomal stability, human; assay type: in vitro ADME; conditions: for Microsomal stability, % remaining: Human Microsome, same batch; for microsomal stability (in words) / % of compound remaining when incubated in human liver microsomes with NADPH: human liver microsomes; for half-life: human, liver microsomes, human liver microsomes with NADPH
[4] = Pharmacokinetic studies in rats; assay type: in vivo, rat; conditions: for oral bioavailability / oral pharmacokinetics in rats (in words): oral dosing; for bioavailability / half-life / AUC(0-t) / Cmax: rat, plasma, male rats, oral dose 15 mg/kg; for AUC(0-t): read-out: AUC(0-t); for Cmax: read-out: Cmax
Description: Pharmacokinetic studies on MDM2 inhibitors were carried out in rat. For comparison, the MDM2 inhibitor, AT-219, was also studied.

[5] = system: Isogenic HCT-116 colon cancer cell lines; test: cells; assay type: cell-based; conditions: Homo sapiens, cell growth;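 note: cells grown in 96-well plates in McCoy's 5A medium with 10% FBS, exposed to compound for 4 days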
Description: Cells were seeded in 96-well flat bottom cell culture plates at a density of 2−3×10^3 cells/well with compounds and incubated for 4 days.

[6] = In vitro microsomal stability, rat; assay type: in vitro ADME; conditions: for Microsomal stability, % remaining: Rat Microsome, same batch; for microsomal stability (in words) / % of compound remaining when incubated in rat liver microsomes with NADPH: rat liver microsomes; for half-life: rat, liver microsomes, rat liver microsomes with NADPH
[7] = LNCaP, Table 19A, LNCAP cells, p53 wild-type, cell growth, read-out: LNCAP (p53 wild-type) IC50
[8] = PC-3, Table 19A, PC-3 cells, deleted p53, cell growth, read-out: PC-3 (deleted p53) IC50
[9] = HCT-116, read-out: HCT-116 (p53-/-) IC50, Table 19A, HCT-116 p53-/-
[10] = HCT-116, read-out: HCT-116 (p53 wild-type) IC50, Table 19A, HCT-116 p53 wild-type

Compound: CC(C)(C)C[C@H]1N[C@@H](C(=O)NCCC(C)(O)CO)[C@H](c2cccc(Cl)c2)[C@@]12C(=O)Nc1cc(Cl)c(F)cc12 (stereo partly drawn) [MI-758]
- IC50 [1, 7]: 0.6 µM
- IC50 [1, 8]: 18.7 ± 7.1 µM
- IC50 [2]: < 1 µM
- Microsomal stability, % remaining ([3]; 0 min): 100.00%
- Microsomal stability, % remaining ([3]; 5 min): 95.88%
- Microsomal stability, % remaining ([3]; 10 min): 89.21%
- Microsomal stability, % remaining ([3]; 15 min): 81.61%
- Microsomal stability, % remaining ([3]; 30 min): 65.20%
- Microsomal stability, % remaining ([3]; 45 min): 54.52%
- Microsomal stability, % remaining ([3]; 60 min): 51.45%
- microsomal stability (in words) [3]: improved stability over MI-219
- % of compound remaining when incubated in human liver microsomes with NADPH ([3]; 0 min): 100.00%
- % of compound remaining when incubated in human liver microsomes with NADPH ([3]; 5 min): 95.88%
- % of compound remaining when incubated in human liver microsomes with NADPH ([3]; 10 min): 89.21%
- % of compound remaining when incubated in human liver microsomes with NADPH ([3]; 15 min): 81.61%
- % of compound remaining when incubated in human liver microsomes with NADPH ([3]; 30 min): 65.20%
- % of compound remaining when incubated in human liver microsomes with NADPH ([3]; 45 min): 54.52%
- % of compound remaining when incubated in human liver microsomes with NADPH ([3]; 60 min): 51.45%
- half-life [3]: 0.825 h
- oral bioavailability / oral pharmacokinetics in rats (in words) [4]: good oral bioavailability and pharmacokinetic parameters
- bioavailability [4]: 38%
- half-life [4]: 1.9 ± 0.1 h
- AUC(0-t) [4]: 4280 ± 2690 µg·h/mL
- Cmax [4]: 1490 ± 1120 ng/mL
- IC50 [5, 9]: 19.1 ± 3.6 µM
- IC50 [5, 10]: 0.6 µM
- Microsomal stability, % remaining ([6]; 0 min): 100.00%
- Microsomal stability, % remaining ([6]; 5 min): 96.52%
- Microsomal stability, % remaining ([6]; 10 min): 92.93%
- Microsomal stability, % remaining ([6]; 15 min): 82.50%
- Microsomal stability, % remaining ([6]; 30 min): 73.32%
- Microsomal stability, % remaining ([6]; 45 min): 69.33%
- Microsomal stability, % remaining ([6]; 60 min): 66.93%
- microsomal stability (in words) [6]: improved stability over MI-219
- % of compound remaining when incubated in rat liver microsomes with NADPH ([6]; 0 min): 100.00%
- % of compound remaining when incubated in rat liver microsomes with NADPH ([6]; 5 min): 96.52%
- % of compound remaining when incubated in rat liver microsomes with NADPH ([6]; 10 min): 92.93%
- % of compound remaining when incubated in rat liver microsomes with NADPH ([6]; 15 min): 82.50%
- % of compound remaining when incubated in rat liver microsomes with NADPH ([6]; 30 min): 73.32%
- % of compound remaining when incubated in rat liver microsomes with NADPH ([6]; 45 min): 69.33%
- % of compound remaining when incubated in rat liver microsomes with NADPH ([6]; 60 min): 66.93%
- half-life [6]: 1.33 h

Compound: CC(C)(C)C[C@H]1N[C@@H](C(=O)NCC[C@H](O)CN2CCCC2)[C@H](c2cccc(Cl)c2)[C@@]12C(=O)Nc1cc(Cl)c(F)cc12 [MI-519-28]
- IC50 [1, 7]: < 2 µM
- IC50 [1, 8]: 4.1 ± 0.2 µM
- IC50 [2]: < 2 µM
- Microsomal stability, % remaining ([3]; 0 min): 100.00%
- Microsomal stability, % remaining ([3]; 5 min): 91.87%
- Microsomal stability, % remaining ([3]; 10 min): 89.02%
- Microsomal stability, % remaining ([3]; 15 min): 77.40%
- Microsomal stability, % remaining ([3]; 30 min): 66.83%
- Microsomal stability, % remaining ([3]; 45 min): 55.85%
- Microsomal stability, % remaining ([3]; 60 min): 53.78%
- microsomal stability (in words) [3]: improved stability over MI-219
- % of compound remaining when incubated in human liver microsomes with NADPH ([3]; 0 min): 100.00%
- % of compound remaining when incubated in human liver microsomes with NADPH ([3]; 5 min): 91.87%
- % of compound remaining when incubated in human liver microsomes with NADPH ([3]; 10 min): 89.02%
- % of compound remaining when incubated in human liver microsomes with NADPH ([3]; 15 min): 77.40%
- % of compound remaining when incubated in human liver microsomes with NADPH ([3]; 30 min): 66.83%
- % of compound remaining when incubated in human liver microsomes with NADPH ([3]; 45 min): 55.85%
- % of compound remaining when incubated in human liver microsomes with NADPH ([3]; 60 min): 53.78%
- half-life [3]: 0.902 h
- oral bioavailability / oral pharmacokinetics in rats (in words) [4]: much inferior oral pharmacokinetic parameters
- bioavailability [4]: 8.4%
- half-life [4]: 1.6 ± 0.2 h
- AUC(0-t) [4]: 419 ± 239 µg·h/mL
- Cmax [4]: 102 ± 46 ng/mL
- IC50 [5, 9]: > 5 µM
- IC50 [5, 10]: < 2 µM
- Microsomal stability, % remaining ([6]; 0 min): 100.00%
- Microsomal stability, % remaining ([6]; 5 min): 92.34%
- Microsomal stability, % remaining ([6]; 10 min): 87.59%
- Microsomal stability, % remaining ([6]; 15 min): 86.13%
- Microsomal stability, % remaining ([6]; 30 min): 71.97%
- Microsomal stability, % remaining ([6]; 45 min): 65.40%
- Microsomal stability, % remaining ([6]; 60 min): 61.79%
- microsomal stability (in words) [6]: improved stability over MI-219
- % of compound remaining when incubated in rat liver microsomes with NADPH ([6]; 0 min): 100.00%
- % of compound remaining when incubated in rat liver microsomes with NADPH ([6]; 5 min): 92.34%
- % of compound remaining when incubated in rat liver microsomes with NADPH ([6]; 10 min): 87.59%
- % of compound remaining when incubated in rat liver microsomes with NADPH ([6]; 15 min): 86.13%
- % of compound remaining when incubated in rat liver microsomes with NADPH ([6]; 30 min): 71.97%
- % of compound remaining when incubated in rat liver microsomes with NADPH ([6]; 45 min): 65.40%
- % of compound remaining when incubated in rat liver microsomes with NADPH ([6]; 60 min): 61.79%
- half-life [6]: 1.24 h
